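Five concentrations, 48 hours, 96-well plates. GI50: concentration for 50% inhibition of growth.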 Calls of active or inactive are those of the source. Cut-off read from the data, not from the text of the source: active = GI50 up to about 1.1 µM and inactive = higher.
Assays:
Test in all cases: NCI-60 cell line screen, 48 h
NCI-H460 = tested on: NCI-H460
A498 = tested on: A498
SK-OV-3 = tested on: SK-OV-3
OVCAR-8 = tested on: OVCAR-8
786-0 = tested on: 786-0
CAKI-1 = tested on: CAKI-1
Hs-578T = tested on: Hs-578T
UACC-257 = tested on: UACC-257
MOLT-4 = tested on: MOLT-4
PC-3 = tested on: PC-3
U-251 = tested on: U-251
HOP-92 = tested on: HOP-92
COLO 205 = tested on: COLO 205
SK-MEL-2 = tested on: SK-MEL-2
HCT-15 = tested on: HCT-15
NCI-H522 = tested on: NCI-H522
ACHN = tested on: ACHN
DU-145 = tested on: DU-145
SNB-19 = tested on: SNB-19
MDA-MB-231 = tested on: MDA-MB-231
HCC 2998 = tested on: HCC 2998
MCF7 = tested on: MCF7
KM12 = tested on: KM12
RPMI-8226 = tested on: RPMI-8226
HOP-62 = tested on: HOP-62
EKVX = tested on: EKVX
TK-10 = tested on: TK-10
OVCAR-5 = tested on: OVCAR-5
SF-539 = tested on: SF-539
M14 = tested on: M14
MDA-MB-435 = tested on: MDA-MB-435
SK-MEL-28 = tested on: SK-MEL-28
HT-29 = tested on: HT-29
RXF 393 = tested on: RXF 393
SN12C = tested on: SN12C
SNB-75 = tested on: SNB-75
LOX IMVI = tested on: LOX IMVI
NCI/ADR-RES = tested on: NCI/ADR-RES
K562 = tested on: K562
SK-MEL-5 = tested on: SK-MEL-5
MDA-N = tested on: MDA-N
NCI-H23 = tested on: NCI-H23
SR = tested on: SR
BT-549 = tested on: BT-549
SF-295 = tested on: SF-295
HL-60 = tested on: HL-60
HCT-116 = tested on: HCT-116
T47D = tested on: T47D
Malme-3M = tested on: Malme-3M
OVCAR-4 = tested on: OVCAR-4
SF-268 = tested on: SF-268
CCRF-CEM = tested on: CCRF-CEM
SW-620 = tested on: SW-620
A549 = tested on: A549
IGROV-1 = tested on: IGROV-1
NCI-H226 = tested on: NCI-H226
UACC-62 = tested on: UACC-62
OVCAR-3 = tested on: OVCAR-3
UO-31 = tested on: UO-31

O=c1c2cccnc2[nH]c2ccc3[nH]ncc3c12
GI50 (NCI-H460): > 10 µM (inactive) | GI50 (A498): 8.49 µM (inactive) | GI50 (SK-OV-3): > 10 µM (inactive) | GI50 (OVCAR-8): > 10 µM (inactive) | GI50 (786-0): > 10 µM (inactive) | GI50 (CAKI-1): 7.45 µM (inactive) | GI50 (Hs-578T): > 10 µM (inactive) | GI50 (UACC-257): > 10 µM (inactive) | GI50 (MOLT-4): > 10 µM (inactive) | GI50 (PC-3): > 10 µM (inactive) | GI50 (U-251): > 10 µM (inactive) | GI50 (HOP-92): > 10 µM (inactive) | GI50 (COLO 205): > 10 µM (inactive) | GI50 (SK-MEL-2): > 10 µM (inactive) | GI50 (HCT-15): 6.18 µM | GI50 (NCI-H522): > 10 µM (inactive) | GI50 (ACHN): 5.13 µM (inactive) | GI50 (DU-145): > 10 µM (inactive) | GI50 (SNB-19): > 10 µM (inactive) | GI50 (MDA-MB-231): > 10 µM (inactive) | GI50 (HCC 2998): > 10 µM (inactive) | GI50 (MCF7): > 10 µM (inactive) | GI50 (KM12): 5.45 µM (inactive) | GI50 (RPMI-8226): > 10 µM (inactive) | GI50 (HOP-62): > 10 µM (inactive) | GI50 (EKVX): 9.33 µM (inactive) | GI50 (TK-10): > 10 µM (inactive) | GI50 (OVCAR-5): > 10 µM (inactive) | GI50 (SF-539): > 10 µM (inactive) | GI50 (M14): > 10 µM (inactive) | GI50 (MDA-MB-435): > 10 µM (inactive) | GI50 (SK-MEL-28): > 10 µM (inactive) | GI50 (HT-29): > 10 µM (inactive) | GI50 (RXF 393): > 10 µM (inactive) | GI50 (SN12C): > 10 µM (inactive) | GI50 (SNB-75): > 10 µM (inactive) | GI50 (LOX IMVI): 2.91 µM (inactive) | GI50 (NCI/ADR-RES): > 10 µM (inactive) | GI50 (K562): > 10 µM (inactive) | GI50 (SK-MEL-5): > 10 µM (inactive) | GI50 (MDA-N): > 10 µM (inactive) | GI50 (NCI-H23): > 10 µM (inactive) | GI50 (SR): > 10 µM (inactive) | GI50 (BT-549): > 10 µM (inactive) | GI50 (SF-295): > 10 µM (inactive) | GI50 (HL-60): > 10 µM (inactive) | GI50 (HCT-116): 7.91 µM (inactive) | GI50 (T47D): > 10 µM (inactive) | GI50 (Malme-3M): > 10 µM (inactive) | GI50 (OVCAR-4): > 10 µM (inactive) | GI50 (SF-268): > 10 µM (inactive) | GI50 (CCRF-CEM): > 10 µM (inactive) | GI50 (SW-620): > 10 µM (inactive) | GI50 (A549): > 10 µM (inactive) | GI50 (IGROV-1): 6.11 µM (inactive) | GI50 (NCI-H226): > 10 µM (inactive) | GI50 (UACC-62): > 10 µM (inactive) | GI50 (OVCAR-3): > 10 µM (inactive)

COC(=O)C(CCCCN)NC(=O)C(CCCCN)NC(C)=O.Cc1ccc(C(=O)Nc2ccc(S(=O)(=O)O)c3cc(S(=O)(=O)O)cc(S(=O)(=O)O)c23)cc1NC(=O)c1cccc(NC(=O)Nc2cccc(C(=O)Nc3cc(C(=O)Nc4ccc(S(=O)(=O)O)c5cc(S(=O)(=O)O)cc(S(=O)(=O)O)c45)ccc3C)c2)c1
GI50 (NCI-H460): > 50 µM (inactive) | GI50 (A498): > 50 µM (inactive) | GI50 (SK-OV-3): > 50 µM (inactive) | GI50 (OVCAR-8): > 50 µM (inactive) | GI50 (786-0): > 50 µM (inactive) | GI50 (CAKI-1): > 50 µM (inactive) | GI50 (Hs-578T): 39.1 µM (inactive) | GI50 (UACC-257): > 50 µM (inactive) | GI50 (MOLT-4): > 50 µM (inactive) | GI50 (PC-3): > 50 µM (inactive) | GI50 (U-251): > 50 µM (inactive) | GI50 (HOP-92): > 50 µM (inactive) | GI50 (COLO 205): > 50 µM (inactive) | GI50 (SK-MEL-2): > 50 µM (inactive) | GI50 (HCT-15): > 50 µM | GI50 (NCI-H522): > 50 µM (inactive) | GI50 (ACHN): > 50 µM (inactive) | GI50 (DU-145): > 50 µM (inactive) | GI50 (SNB-19): > 50 µM (inactive) | GI50 (MDA-MB-231): 16.2 µM (inactive) | GI50 (HCC 2998): > 50 µM (inactive) | GI50 (MCF7): > 50 µM (inactive) | GI50 (KM12): > 50 µM (inactive) | GI50 (RPMI-8226): > 50 µM (inactive) | GI50 (EKVX): > 50 µM (inactive) | GI50 (SF-539): > 50 µM (inactive) | GI50 (M14): 10.6 µM (inactive) | GI50 (MDA-MB-435): > 50 µM (inactive) | GI50 (SK-MEL-28): > 50 µM (inactive) | GI50 (HT-29): > 50 µM (inactive) | GI50 (RXF 393): > 50 µM (inactive) | GI50 (SN12C): > 50 µM (inactive) | GI50 (SNB-75): 7.59 µM (inactive) | GI50 (LOX IMVI): > 50 µM (inactive) | GI50 (NCI/ADR-RES): > 50 µM (inactive) | GI50 (UO-31): > 50 µM (inactive) | GI50 (K562): > 50 µM (inactive) | GI50 (SK-MEL-5): > 50 µM (inactive) | GI50 (MDA-N): > 50 µM (inactive) | GI50 (NCI-H23): > 50 µM (inactive) | GI50 (SR): > 50 µM (inactive) | GI50 (BT-549): > 50 µM (inactive) | GI50 (SF-295): > 50 µM (inactive) | GI50 (HL-60): > 50 µM (inactive) | GI50 (HCT-116): > 50 µM (inactive) | GI50 (T47D): > 50 µM (inactive) | GI50 (Malme-3M): > 50 µM (inactive) | GI50 (OVCAR-4): 8.73 µM (inactive) | GI50 (SF-268): > 50 µM (inactive) | GI50 (CCRF-CEM): > 50 µM (inactive) | GI50 (SW-620): > 50 µM (inactive) | GI50 (A549): > 50 µM (inactive) | GI50 (IGROV-1): > 50 µM (inactive) | GI50 (NCI-H226): > 50 µM (inactive) | GI50 (UACC-62): > 50 µM (inactive) | GI50 (OVCAR-3): > 50 µM (inactive)

— ChEMBL document CHEMBL1201862, “PubChem BioAssay data set” (2004)
